Source: PubChem BioAssay (NCI)
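Growth conditions: 96-well plates. Treatment: test compound, 48 hours, 5 concentrations. Analysis: linear interpolation between bracketing concentrations; unreached endpoints set to highest concentration. GI50 is the concentration that inhibits growth by half. TGI denotes the concentration required for complete inhibition of growth.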 Where a SMILES comes first, the peptide text is derived from it. The star is where a group is joined. Boc = CC(C)(C)OC(=O)*; OSu = O=C1CCC(=O)N1O*

Tests used:
Assay in all cases: inhibition of tumour cell growth, NCI panel, 48 h
[1] = test system: MCF7 breast
[2] = test system: NCI/ADR-RES ovarian
[3] = test system: COLO 205 colon
[4] = test system: 786-0 renal
[5] = test system: SF-539 CNS
[6] = test system: SNB-75 CNS
[7] = test system: OVCAR-5 ovarian
[8] = test system: OVCAR-8 ovarian
[9] = test system: RXF 393 renal
[10] = test system: A498 renal

SMILES	TGI [1] [µM]	TGI [2] [µM]	TGI [3] [µM]	TGI [4] [µM]	TGI [5] [µM]	TGI [6] [µM]	TGI [7] [µM]	TGI [8] [µM]	TGI [9] [µM]	TGI [10] [µM]	GI50 [1] [µM]	GI50 [3] [µM]	GI50 [10] [µM]	GI50 [5] [µM]	GI50 [6] [µM]	GI50 [7] [µM]	GI50 [8] [µM]	GI50 [9] [µM]
CC(NC(=O)C(NC(=O)OC(C)(C)C)C(C)C)C(=O)NCC(=O)ON1C(=O)CCC1=O (stereo not drawn) (Boc-Val-Ala-Gly-OSu; configuration not given here)	> 100	> 100	> 100	> 100	> 100	> 100	> 100	> 100	> 100									
O=C(c1ccccc1)N1CCN(C(=S)N(C(=O)c2ccccc2)c2ccccc2)C1=S	10	> 27.7	13.2	5.31	7.07	6.56	42.1	13.3		13.4								
Cc1c(Cl)c2ccccc2n1S(=O)(=O)c1ccccc1			> 100	> 100	> 100	58	> 100	> 100										
Oc1ccc(-c2nc(-c3cccnc3)c(-c3ccc(Cl)cc3)[nH]2)cc1O	24.2	32.5	30.3	> 100		20.2	35.3	30.2	25.6									
O=C(c1ccc(Cl)cc1)c1ccc(OCCCOc2ccc(C(=O)c3ccc(Cl)cc3)cc2)cc1			> 100	> 100	> 100	> 100	> 100	> 100	> 100									
Nc1ncnc2c1nnn2C1C=CC(COS(N)(=O)=O)C1 (configuration not stated)	> 100	> 100	17.4	33.3	7.39	39.3	49.3	55	86									
O=C(/C=C/c1ccc(O)cc1)c1ccc2c(c1)OCO2		67.9	32	57.7	26.8	50.3	93	29.6	38.7	38.4								
CCc1cc(Cc2cc(Cl)c(NC(=O)C(=O)C3NC(=O)NC3=O)c(CC)c2)cc(Cl)c1NC(=O)C(=O)C1NC(=O)NC1=O (configuration not stated)			> 100	> 100	> 100	90.7	> 100	58.6	59.9	> 100								
N#CC1=C(N)n2c(s/c(=C\c3ccc(Cl)cc3)c2=O)=C(c2nc3ccccc3[nH]2)C1c1ccc(Cl)cc1 (configuration not stated)			6.38	4.96	3.56	17.8	3.66	3.78		4.29								
CCC12CCCN(Cc3ccccc3)C1c1c([nH]c3ccccc13)C(C(=O)OC)C2 (configuration not stated)	> 10	> 10	> 10	> 10	> 10	> 10	> 10	> 10										
COC(=O)c1c(O)ccc2c1c1c(n2Cc2ccccc2Cl)C(=O)c2ccccc2C1=O	32.4	39.3	15.8	36.4	30		39.4	51.5	41.3	31.3								
Cc1c(Cl)nc(Nc2nc3ccccc3[nH]2)nc1Cl		> 100	> 100	> 100	> 100	> 100	> 100	> 100	> 100	> 100								
O=C(Nc1cccc(-n2ccc3c(NC(=O)c4ccccc4)nccc32)c1)Nc1cc(C(F)(F)F)cc(C(F)(F)F)c1	> 50		5.29		4.76	3.89	> 50	5.14	3.17	> 50	1.65	1.68	1.53	1.39	1.09	1.71	1.65	1.16
O=C(/N=C/c1c(O)c2ccccc2oc1=O)Nc1ccccc1			> 100	> 100	> 100	83.5	> 100	> 100	91.8	> 100								
CCN(CC)CC1CCCCN1CC(=O)N1c2ccccc2NC(=O)CC1C (configuration not stated)	> 100	> 100	> 100	> 100	> 100		> 100	> 100	> 100	> 100								
C[n+]1c(-c2ccc(/C=N/NC(=N)N/N=C/c3ccc(-c4cn5cc(Cl)ccc5[n+]4C)cc3)cc2)cn2cc(Cl)ccc21	> 100	> 100	> 100	> 100	> 100	> 100	> 100	> 100										
BrCCCCCOc1ccc(-c2c3ccccc3c(-c3ccc(OCCCCCBr)cc3)c3ccccc23)cc1	> 100	> 100	> 100	> 100	> 100	> 100	> 100	> 100	> 100									
NC(CCCC(N)P(=O)(O)c1ccccc1)P(=O)(O)c1ccccc1 (configuration not stated)			> 261	> 261	> 261	> 261		> 261	> 261	> 261								
CCCCC(=O)NS(=NC(=O)c1ccccc1)C(Cl)(Cl)Cl (configuration not stated)	> 100	> 100	> 100	> 100	> 100	> 100	> 100	> 100	> 100									
CN1CCCC2(CCCc3ccccc32)C1 (configuration not stated)			> 100	> 100	> 100	> 100	> 100	> 100		> 100								
OC(c1cc2ccccc2o1)c1cc2ccccc2s1 (configuration not stated)	> 10	> 10	> 10	> 10	> 10	> 10	> 10	> 10	> 10									
Cc1cccc2c(=O)c([Se]c3coc4c(C)cccc4c3=O)coc12				31	29.9	31.3	34.7	29.8	32.2	41								
